Measurements taken from BindingDB's records for doi:10.1016/j.bmcl.2007.12.040 (Merck Research Laboratories, 2008).

How the values were obtained:
Assay in all cases: Akt Inhibition Assay
Settings in all cases: pH 7.5; 22 °C
[1] = molecular target: RAC-alpha serine/threonine-protein kinase (Homo sapiens, UniProt P31749)
Description: (§1) Purified recombinant human Akt kinase was monitored for kinase activity in the presence or absence of inhibitors in a 96-well format. Detection was done by homogeneous time-resolved fluorescence (HTRF) using a europium-labeled Phospho (S21)-GSK3a antibody, and streptavidin-linked XL665 fluorophore which binds to the biotin moiety on the substrate peptide.

[2] = molecular target: RAC-beta serine/threonine-protein kinase (Homo sapiens, UniProt P31751)
Sequence of RAC-beta serine/threonine-protein kinase (P31751 whole entry): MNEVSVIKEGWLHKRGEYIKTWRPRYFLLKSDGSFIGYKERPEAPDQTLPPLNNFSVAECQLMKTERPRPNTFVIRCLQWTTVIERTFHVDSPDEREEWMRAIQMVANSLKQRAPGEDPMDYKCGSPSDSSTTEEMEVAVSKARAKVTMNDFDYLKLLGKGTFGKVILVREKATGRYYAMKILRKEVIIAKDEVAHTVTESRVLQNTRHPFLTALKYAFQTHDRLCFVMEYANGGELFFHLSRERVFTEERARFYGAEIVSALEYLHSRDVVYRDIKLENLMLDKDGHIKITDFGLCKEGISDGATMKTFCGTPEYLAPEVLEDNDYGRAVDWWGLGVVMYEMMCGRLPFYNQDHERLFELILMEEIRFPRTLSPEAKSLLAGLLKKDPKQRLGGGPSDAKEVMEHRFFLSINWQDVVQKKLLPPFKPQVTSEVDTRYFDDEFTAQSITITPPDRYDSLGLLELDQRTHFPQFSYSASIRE
Description: as §1

[3] = molecular target: RAC-gamma serine/threonine-protein kinase (Homo sapiens, UniProt Q9Y243)
Sequence of RAC-gamma serine/threonine-protein kinase (Q9Y243 whole entry): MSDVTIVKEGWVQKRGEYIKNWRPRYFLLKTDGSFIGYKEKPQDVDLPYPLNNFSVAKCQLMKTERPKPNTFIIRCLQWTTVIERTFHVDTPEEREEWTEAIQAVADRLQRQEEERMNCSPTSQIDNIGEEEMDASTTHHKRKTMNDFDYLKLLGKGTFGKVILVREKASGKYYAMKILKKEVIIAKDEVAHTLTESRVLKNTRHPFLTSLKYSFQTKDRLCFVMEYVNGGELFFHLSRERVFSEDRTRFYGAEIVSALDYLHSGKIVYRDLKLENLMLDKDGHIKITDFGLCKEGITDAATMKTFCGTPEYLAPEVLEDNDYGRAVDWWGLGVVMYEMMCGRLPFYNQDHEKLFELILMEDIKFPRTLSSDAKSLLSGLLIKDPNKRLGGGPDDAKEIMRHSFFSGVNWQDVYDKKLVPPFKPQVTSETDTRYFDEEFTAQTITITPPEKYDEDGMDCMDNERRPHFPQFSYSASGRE
Description: as §1

Sequence of RAC-alpha serine/threonine-protein kinase (P31749 whole entry): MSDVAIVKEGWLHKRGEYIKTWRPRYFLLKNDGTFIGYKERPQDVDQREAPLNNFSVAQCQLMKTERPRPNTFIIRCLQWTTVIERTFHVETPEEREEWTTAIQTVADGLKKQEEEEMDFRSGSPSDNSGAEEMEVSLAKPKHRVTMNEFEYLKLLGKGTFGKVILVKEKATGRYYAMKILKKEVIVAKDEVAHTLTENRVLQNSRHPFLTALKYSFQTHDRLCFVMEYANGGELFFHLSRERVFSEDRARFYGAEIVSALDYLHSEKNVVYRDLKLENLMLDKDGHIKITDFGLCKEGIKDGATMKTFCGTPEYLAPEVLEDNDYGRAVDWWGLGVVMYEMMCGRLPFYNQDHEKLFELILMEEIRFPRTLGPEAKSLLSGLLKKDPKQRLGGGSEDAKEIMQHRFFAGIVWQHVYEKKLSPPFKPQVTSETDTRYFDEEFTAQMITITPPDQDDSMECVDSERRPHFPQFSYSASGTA

| SMILES | IC50 [1] [nM] | IC50 [2] [nM] | IC50 [3] [nM] |
| --- | --- | --- | --- |
| Nc1nnc(-c2cnc(-c3ccc(CN4CCC(n5cc(-c6ccccn6)cn5)CC4)cc3)c(-c3ccccc3)c2)s1 [5-{5-phenyl-6-[4-({4-[4-(pyridin-2-yl)-1H-pyrazol-1-yl]piperidin-1-yl}methyl)phenyl]pyridin-3-yl}-1,3,4-thiadiazol-2-amine] | 214 | 90 | – |
| Nc1nnc(-c2cnc(-c3ccc(CN4CCC(n5c(=O)[nH]c6ncccc65)CC4)cc3)c(-c3ccccc3)c2)s1 [1-[1-({4-[5-(5-amino-1,3,4-thiadiazol-2-yl)-3-phenylpyridin-2-yl]phenyl}methyl)piperidin-4-yl]-1H,2H,3H-imidazo[4,5-b]pyridin-2-one] | 434 | 73 | – |
| Nc1ncnc2c1cnn2C1CCN(Cc2ccc(-c3ncc(-c4ccccn4)cc3-c3ccccc3)cc2)CC1 [1-[1-({4-[3-phenyl-5-(pyridin-2-yl)pyridin-2-yl]phenyl}methyl)piperidin-4-yl]-1H-pyrazolo[3,4-d]pyrimidin-4-amine] | 1630 | 370 | – |
| Nc1ncnc2c1cnn2C1CCN(Cc2ccc(-c3ncc(-c4ncccn4)cc3-c3ccccc3)cc2)CC1 [1-[1-({4-[3-phenyl-5-(pyrimidin-2-yl)pyridin-2-yl]phenyl}methyl)piperidin-4-yl]-1H-pyrazolo[3,4-d]pyrimidin-4-amine] | 306 | 62 | – |
| Nc1ncnc2c1cnn2C1CCN(Cc2ccc(-c3ncc(-c4nccs4)cc3-c3ccccc3)cc2)CC1 [1-[1-({4-[3-phenyl-5-(1,3-thiazol-2-yl)pyridin-2-yl]phenyl}methyl)piperidin-4-yl]-1H-pyrazolo[3,4-d]pyrimidin-4-amine] | 264 | 64 | – |
| Nc1ncnc2c1cnn2C1CCN(Cc2ccc(-c3ncc(-c4nnc[nH]4)cc3-c3ccccc3)cc2)CC1 [1-[1-({4-[3-phenyl-5-(1H-1,2,4-triazol-3-yl)pyridin-2-yl]phenyl}methyl)piperidin-4-yl]-1H-pyrazolo[3,4-d]pyrimidin-4-amine] | 182 | 101 | – |
| Nc1ncnc2c1ncn2C1CCN(Cc2ccc(-c3ncc(-c4nnn[nH]4)cc3-c3ccccc3)cc2)CC1 [9-[1-({4-[3-phenyl-5-(1H-1,2,3,4-tetrazol-5-yl)pyridin-2-yl]phenyl}methyl)piperidin-4-yl]-9H-purin-6-amine] | 210 | 105 | > 50000 |

The next lines start with the values.

| IC50 [1] [nM] | IC50 [2] [nM] | IC50 [3] [nM] | SMILES |
| --- | --- | --- | --- |
| 126 | 22 | – | Nc1nnc(-c2cnc(-c3ccc(CN4CCC(n5ncc6c(N)ncnc65)CC4)cc3)c(-c3ccccc3)c2)s1 [5-(6-{4-[(4-{4-amino-1H-pyrazolo[3,4-d]pyrimidin-1-yl}piperidin-1-yl)methyl]phenyl}-5-phenylpyridin-3-yl)-1,3,4-thiadiazol-2-amine] |
| 114 | 30 | – | Nc1nnc(-c2cnc(-c3ccc(CNCCC(=O)c4ccccc4N)cc3)c(-c3ccccc3)c2)s1 [3-[({4-[5-(5-amino-1,3,4-thiadiazol-2-yl)-3-phenylpyridin-2-yl]phenyl}methyl)amino]-1-(2-aminophenyl)propan-1-one] |
| 180 | 121 | – | Nc1ncnc2c1cnn2C1CCN(Cc2ccc(-c3ncc(-c4ncon4)cc3-c3ccccc3)cc2)CC1 [1-[1-({4-[5-(1,2,4-oxadiazol-3-yl)-3-phenylpyridin-2-yl]phenyl}methyl)piperidin-4-yl]-1H-pyrazolo[3,4-d]pyrimidin-4-amine] |
| 123 | 38 | – | Nc1nnc(-c2cnc(-c3ccc(CN4CCC(c5cc(-c6ccncc6)[nH]n5)CC4)cc3)c(-c3ccccc3)c2)s1 [5-{5-phenyl-6-[4-({4-[5-(pyridin-4-yl)-1H-pyrazol-3-yl]piperidin-1-yl}methyl)phenyl]pyridin-3-yl}-1,3,4-thiadiazol-2-amine] |
| 172 | 51 | – | Nc1nnc(-c2cnc(-c3ccc(CN4CCC(n5cc(-c6cnccn6)cn5)CC4)cc3)c(-c3ccccc3)c2)s1 [5-{5-phenyl-6-[4-({4-[4-(pyrazin-2-yl)-1H-pyrazol-1-yl]piperidin-1-yl}methyl)phenyl]pyridin-3-yl}-1,3,4-thiadiazol-2-amine] |
| 85 | 22 | – | Nc1nnc(-c2cnc(-c3ccc(CN4CCC(c5n[nH]c(-c6ccccn6)n5)CC4)cc3)c(-c3ccccc3)c2)s1 [5-{5-phenyl-6-[4-({4-[5-(pyridin-2-yl)-1H-1,2,4-triazol-3-yl]piperidin-1-yl}methyl)phenyl]pyridin-3-yl}-1,3,4-thiadiazol-2-amine] |
| 95 | 28 | – | Nc1nnc(-c2cnc(-c3ccc(CN4CCC(c5cc(-c6ccccn6)[nH]n5)CC4)cc3)c(-c3ccccc3)c2)s1 [5-{5-phenyl-6-[4-({4-[5-(pyridin-2-yl)-1H-pyrazol-3-yl]piperidin-1-yl}methyl)phenyl]pyridin-3-yl}-1,3,4-thiadiazol-2-amine] |
